The source made the active and inactive calls. The rule behind the calls is not given here.
Tested on: CCRIS mutagenicity, Ames/micronucleus/aberration tests
Test: CCRIS mutagenicity studies
[1] = Test System: AMES SALMONELLA TYPHIMURIUM, Strain/Indicator: TA98, Metabolic Activation: NONE, Method: STANDARD PLATE
[2] = Test System: AMES SALMONELLA TYPHIMURIUM, Strain/Indicator: TA98, Metabolic Activation: RAT, LIVER, S-9, AROCLOR 1254, Method: STANDARD PLATE
[3] = Test System: AMES SALMONELLA TYPHIMURIUM, Strain/Indicator: TA100, Metabolic Activation: NONE, Method: STANDARD PLATE
[4] = Test System: AMES SALMONELLA TYPHIMURIUM, Strain/Indicator: TA100, Metabolic Activation: RAT, LIVER, S-9, AROCLOR 1254, Method: STANDARD PLATE
[5] = Test System: AMES SALMONELLA TYPHIMURIUM, Strain/Indicator: TA1535, Metabolic Activation: NONE, Method: STANDARD PLATE
[6] = Test System: AMES SALMONELLA TYPHIMURIUM, Strain/Indicator: TA1537, Metabolic Activation: NONE, Method: STANDARD PLATE

CCN(CC)c1cc(NC(C)=O)c(N=Nc2c(Br)cc([N+](=O)[O-])cc2[N+](=O)[O-])cc1OC
mutagenic call [1]: active; positive | mutagenic call [2]: active; positive | mutagenic call (Test System: AMES SALMONELLA TYPHIMURIUM, Strain/Indicator: TA98DNP6, Metabolic Activation: NONE, Method: STANDARD PLATE): inactive; negative | mutagenic call (Test System: AMES SALMONELLA TYPHIMURIUM, Strain/Indicator: TA98DNP6, Metabolic Activation: RAT, LIVER, S-9, AROCLOR 1254, Method: STANDARD PLATE): active; positive | mutagenic call (Test System: AMES SALMONELLA TYPHIMURIUM, Strain/Indicator: TA98NR, Metabolic Activation: NONE, Method: STANDARD PLATE): inactive; negative | mutagenic call (Test System: AMES SALMONELLA TYPHIMURIUM, Strain/Indicator: TA98NR, Metabolic Activation: RAT, LIVER, S-9, AROCLOR 1254, Method: STANDARD PLATE): active; positive | mutagenic call [3]: active; positive | mutagenic call [4]: active; positive | mutagenic call [5]: inactive; negative | mutagenic call (Test System: AMES SALMONELLA TYPHIMURIUM, Strain/Indicator: TA1535, Metabolic Activation: RAT, LIVER, S-9, AROCLOR 1254, Method: STANDARD PLATE): inactive; negative | mutagenic call [6]: active; positive | mutagenic call (Test System: AMES SALMONELLA TYPHIMURIUM, Strain/Indicator: TA1537, Metabolic Activation: RAT, LIVER, S-9, AROCLOR 1254, Method: STANDARD PLATE): active; positive | mutagenic call (Test System: AMES SALMONELLA TYPHIMURIUM, Strain/Indicator: TA1538, Metabolic Activation: NONE, Method: STANDARD PLATE): active; positive | mutagenic call (Test System: AMES SALMONELLA TYPHIMURIUM, Strain/Indicator: TA1538, Metabolic Activation: RAT, LIVER, S-9, AROCLOR 1254, Method: STANDARD PLATE): active; positive | mutagenic call (Test System: AMES SALMONELLA TYPHIMURIUM, Strain/Indicator: YG1021, Metabolic Activation: NONE, Method: STANDARD PLATE): active; positive | mutagenic call (Test System: AMES SALMONELLA TYPHIMURIUM, Strain/Indicator: YG1021, Metabolic Activation: RAT, LIVER, S-9, AROCLOR 1254, Method: STANDARD PLATE): active; positive | mutagenic call (Test System: AMES SALMONELLA TYPHIMURIUM, Strain/Indicator: YG1024, Metabolic Activation: NONE, Method: STANDARD PLATE): active; positive | mutagenic call (Test System: AMES SALMONELLA TYPHIMURIUM, Strain/Indicator: YG1024, Metabolic Activation: RAT, LIVER, S-9, AROCLOR 1254, Method: STANDARD PLATE): active; positive | mutagenic call (Test System: AMES SALMONELLA TYPHIMURIUM, Strain/Indicator: YG1041, Metabolic Activation: NONE, Method: STANDARD PLATE): active; positive | mutagenic call (Test System: AMES SALMONELLA TYPHIMURIUM, Strain/Indicator: YG1041, Metabolic Activation: RAT, LIVER, S-9, AROCLOR 1254, Method: STANDARD PLATE): active; positive

Cc1cc(Cl)ccc1N
mutagenic call (End Point: IN VITRO CHROMOSOMAL ABERRATIONS, Test System: CHINESE HAMSTER OVARY CELLS, Metabolic Activation: NONE): inactive; negative; authors report that the study may not have allowed sufficient time for | mutagenic call (End Point: IN VITRO CHROMOSOMAL ABERRATIONS, Test System: CHINESE HAMSTER OVARY CELLS, Metabolic Activation: RAT, LIVER, S-9, AROCLOR 1254): active; positive | mutagenic call [1]: inactive; negative | mutagenic call [2]: active; positive | mutagenic call (Test System: AMES SALMONELLA TYPHIMURIUM, Strain/Indicator: TA98, Metabolic Activation: RAT, LIVER, S-9, CLOPHEN A50, Method: STANDARD PLATE): active; positive | mutagenic call [3]: inactive; negative | mutagenic call [4]: inactive; negative | mutagenic call (Test System: AMES SALMONELLA TYPHIMURIUM, Strain/Indicator: TA100, Metabolic Activation: RAT, LIVER, S-9, CLOPHEN A50, Method: STANDARD PLATE): active; positive | mutagenic call [5]: inactive; negative | mutagenic call (Test System: AMES SALMONELLA TYPHIMURIUM, Strain/Indicator: TA1535, Metabolic Activation: RAT, LIVER, S-9, CLOPHEN A50, Method: STANDARD PLATE): inactive; negative | mutagenic call [6]: inactive; negative | mutagenic call (Test System: AMES SALMONELLA TYPHIMURIUM, Strain/Indicator: TA1537, Metabolic Activation: RAT, LIVER, S-9, CLOPHEN A50, Method: STANDARD PLATE): inactive; negative

C[C@H]1C=C(C=O)C(C=O)=C[C@]2(O)CC(C)(C)C[C@H]12
mutagenic call [1]: active; positive | mutagenic call [3]: active; positive | mutagenic call (Test System: AMES SALMONELLA TYPHIMURIUM, Strain/Indicator: TA2637, Metabolic Activation: NONE, Method: STANDARD PLATE): inactive; negative

Reference: PubChem BioAssay AID1259407 (Chemical Carcinogenesis Research Information System (CCRIS), 2018)
